Laboratory results published in PMC6979384, “Characterization of the plant homeodomain (PHD) reader family for their histone tail interactions” (Epigenetics & Chromatin, 2020).

Experiments:
Test in all cases: Histone peptide microarray
Assay type in all cases: binding, human
Details in all cases: histone peptide array
[1] = system: CHD4 (PPCC)
Method in brief: (§1)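 Recombinant GST-PHD protein at 0.5 μM; 293-member modified histone peptide array; signals averaged from four repeats ± SD.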

[2] = system: BPTF (PB)
Method in brief: as §1

[3] = system: KDM4C (TTP)
Method in brief: as §1

[4] = system: TAF3
Method in brief: as §1

[5] = system: PHF23
Method in brief: as §1

[6] = system: MLL5
Method in brief: as §1

[7] = system: MORC3 (CW)
Method in brief: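 Each reader, produced as a GST fusion and purified, was tested at 0.5 μM on synthetic histone peptides (293 in total) carrying single or combinatorial marks. Intensities averaged over four replicates.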

[8] = system: PHF2
Method in brief: as §1

[9] = system: CHD5 (PPCC)
Method in brief: as §1

[10] = system: ING2
Method in brief: as §1

[11] = system: PHF13
Method in brief: as §1

[12] = system: KDM7A
Method in brief: as §1

[13] = system: ING4
Method in brief: as §1

[14] = system: DIDO1
Method in brief: as §1

[15] = system: DPF2 (PPC2W2)
Method in brief: as §1

[16] = system: ING1
Method in brief: as §1

[17] = system: CHD5 (PCC)
Method in brief: as §1

[18] = system: ING5
Method in brief: as §1

[19] = system: RAG2
Method in brief: as §1

[20] = system: KDM5B (3)
Method in brief: as §1

[21] = system: ING3
Method in brief: as §1

[22] = system: KDM5A (1)
Method in brief: as §1

[23] = system: KDM5A (3)
Method in brief: as §1

[24] = system: KDM5B (1)
Method in brief: as §1

[25] = system: SP140L
Method in brief: as §1

[26] = system: PHF21A
Method in brief: as §1

[27] = system: AIRE (PP)
Method in brief: as §1

[28] = system: PHRF1 (RP)
Method in brief: as §1

[29] = system: PHF8
Method in brief: as §1

[30] = system: TRIM66 (PB)
Method in brief: as §1

[31] = system: BAZ2B
Method in brief: as §1

[32] = sheet "Array Heatmap", GST-tagged reader, total n = 4

H3T3p: H3 1-20 [Peptide H3T3p]
Array Heatmap signal, CHD4 (PPCC) ([1]; GST-tagged CHD4 (PPCC = Dual PHD + Dual Chromodomain), arrays performed twice, n of 4): 0.5719 | Array Heatmap signal, CHD4 (PPCC) [1, 32]: 0.6586 | Array Heatmap signal, BPTF (PB) ([2]; GST-tagged BPTF (PB = PHD + Bromodomain), arrays performed twice, n of 4): 0.3368 | Array Heatmap signal, BPTF (PB) [2, 32]: 0.3878 | Array Heatmap signal, KDM4C (TTP) ([3]; GST-tagged KDM4C (TTP = Tandem Tudor domain + PHD), arrays performed twice, n of 4): 0.5211 | Array Heatmap signal, KDM4C (TTP) [3, 32]: 0.5646 | Array Heatmap signal, TAF3 ([4]; GST-tagged TAF3, arrays performed twice, n of 4): 0.2971 | Array Heatmap signal, TAF3 [4, 32]: 0.3113 | Array Heatmap signal, PHF23 ([5]; GST-tagged PHF23, arrays performed twice, n of 4): 0.4911 | Array Heatmap signal, PHF23 [5, 32]: 0.575 | Array Heatmap signal, MLL5 ([6]; GST-tagged MLL5, arrays performed twice, n of 4): 0.5378 | Array Heatmap signal, MLL5 [6, 32]: 0.5888 | Array Heatmap signal, MORC3 (CW) ([7]; GST-tagged MORC3 (CW = CW-type Zn-finger), arrays performed twice, n of 4): 0.3786 | Array Heatmap signal, MORC3 (CW) [7, 32]: 0.4886 | Array Heatmap signal, PHF2 ([8]; GST-tagged PHF2, arrays performed twice, n of 4): 0.434 | Array Heatmap signal, PHF2 [8, 32]: 0.5551 | Array Heatmap signal, CHD5 (PPCC) ([9]; GST-tagged CHD5 (PPCC = Dual PHD + Dual Chromodomain), arrays performed twice, n of 4): 0.549 | Array Heatmap signal, CHD5 (PPCC) [9, 32]: 0.6245 | Array Heatmap signal, ING2 ([10]; GST-tagged ING2, arrays performed twice, n of 4): 0.5798 | Array Heatmap signal, ING2 [10, 32]: 0.6196 | Array Heatmap signal, PHF13 ([11]; GST-tagged PHF13, arrays performed twice, n of 4): 0.5934 | Array Heatmap signal, PHF13 [11, 32]: 0.6741 | Array Heatmap signal, KDM7A ([12]; GST-tagged KDM7A, arrays performed twice, n of 4): 0.4522 | Array Heatmap signal, KDM7A [12, 32]: 0.4256 | Array Heatmap signal, ING4 ([13]; GST-tagged ING4, arrays performed twice, n of 4): 0.4601 | Array Heatmap signal, ING4 [13, 32]: 0.5373 | Array Heatmap signal, DIDO1 ([14]; GST-tagged DIDO1, arrays performed twice, n of 4): 0.6402 | Array Heatmap signal, DIDO1 [14, 32]: 0.7808 | Array Heatmap signal, DPF2 (PPC2W2) ([15]; GST-tagged DPF2 (PPC2W2 = Dual PHD + C2W2-type Zn-finger), arrays performed twice, n of 4): 0.671 | Array Heatmap signal, DPF2 (PPC2W2) [15, 32]: 0.7196 | Array Heatmap signal, ING1 ([16]; GST-tagged ING1, arrays performed twice, n of 4): 0.5096 | Array Heatmap signal, ING1 [16, 32]: 0.5929 | Array Heatmap signal, CHD5 (PCC) ([17]; GST-tagged CHD5 (PCC = PHD + Dual Chromodomain), arrays performed twice, n of 4): 0.8206 | Array Heatmap signal, CHD5 (PCC) [17, 32]: 0.8423 | Array Heatmap signal, ING5 ([18]; GST-tagged ING5, arrays performed twice, n of 4): 0.3543 | Array Heatmap signal, ING5 [18, 32]: 0.4158 | Array Heatmap signal, RAG2 ([19]; GST-tagged RAG2, arrays performed twice, n of 4): 0.2333 | Array Heatmap signal, RAG2 [19, 32]: 0.2772 | Array Heatmap signal, KDM5B (3) ([20]; GST-tagged KDM5B (3), arrays performed twice, n of 4): 0.5071 | Array Heatmap signal, KDM5B (3) [20, 32]: 0.5631 | Array Heatmap signal, ING3 ([21]; GST-tagged ING3, arrays performed twice, n of 4): 0.4483 | Array Heatmap signal, ING3 [21, 32]: 0.5306 | Array Heatmap signal, KDM5A (1) ([22]; GST-tagged KDM5A (1), arrays performed twice, n of 4): 0.4969 | Array Heatmap signal, KDM5A (1) [22, 32]: 0.535 | Array Heatmap signal, KDM5A (3) ([23]; GST-tagged KDM5A (3), arrays performed twice, n of 4): 0.3913 | Array Heatmap signal, KDM5A (3) [23, 32]: 0.4935 | Array Heatmap signal, KDM5B (1) ([24]; GST-tagged KDM5B (1), arrays performed twice, n of 4): 0.6719 | Array Heatmap signal, KDM5B (1) [24, 32]: 0.685 | Array Heatmap signal, SP140L ([25]; GST-tagged SP140L, arrays performed twice, n of 4): 0.3332 | Array Heatmap signal, SP140L [25, 32]: 0.3882 | Array Heatmap signal, PHF21A ([26]; GST-tagged PHF21A, arrays performed twice, n of 4): 0.4766 | Array Heatmap signal, PHF21A [26, 32]: 0.5237 | Array Heatmap signal, AIRE (PP) ([27]; GST-tagged AIRE (PP), arrays performed twice, n of 4): 0.5392 | Array Heatmap signal, AIRE (PP) [27, 32]: 0.548 | Array Heatmap signal, PHRF1 (RP) ([28]; GST-tagged PHRF1 (RP), arrays performed twice, n of 4): 0.4037 | Array Heatmap signal, PHRF1 (RP) [28, 32]: 0.5425 | Array Heatmap signal, PHF8 ([29]; GST-tagged PHF8, arrays performed twice, n of 4): 0.352 | Array Heatmap signal, PHF8 [29, 32]: 0.4275 | Array Heatmap signal, TRIM66 (PB) ([30]; GST-tagged TRIM66 (PB = PHD + Bromodomain), arrays performed twice, n of 4): 0.6313 | Array Heatmap signal, TRIM66 (PB) [30, 32]: 0.6558 | Array Heatmap signal, BAZ2B ([31]; GST-tagged BAZ2B, arrays performed twice, n of 4): 0.469 | Array Heatmap signal, BAZ2B [31, 32]: 0.5253
